Data published in paper PMC3681905, “Anti-Influenza Activity of C60 Fullerene Derivatives” (PLoS ONE, 2013).
Where two headings read alike, the source gives them in different places.

Columns and labels:
[1] = test system: influenza A virus A/PR/8/34 (H1N1); assay: microbe, parasite or virus in culture; format: cell-based; conditions: for IC50: read-out: IC50 H1N1 PR8 strain
[2] = parameters: method as in PMID 14643333; conditions: cited from earlier work
[3] = target: PA N-terminal endonuclease domain (residues 1–220) of influenza A RNA polymerase (Influenza A virus, UniProt P03433); assay: in vitro PA endonuclease assay with recombinant PA endonuclease domain (M13 mp18 digestion, agarose electrophoresis); format: biochemical, influenza A virus (A/PR/8/34 (H1N1)); conditions: Fig. 2C; for inhibition of the digestion of M13 mp18 by the PA endonuclease domain: 10 µM fullerene derivative
Procedure: For the in vitro PA endonuclease assay, we expressed and purified a recombinant influenza PA endonuclease domain (1–220 residues; Fig. 2A, B) using bacteria as described previously [15]–[17]. For the assay, we incubated 0.1 µM recombinant PA endonuclease domain with 1 or 10 µM of each fullerene derivative (Fig. 2C). The PA endonuclease domain digested M13 mp18 circular single-stranded DNA in vitro (Fig. 2C, lanes 1 and 2) [12]–[16], and we investigated whether any of the fullerene derivatives could inhibit this activity. […] This is the first study to report that fullerene derivatives can inhibit the activity of influenza enzymes. Fullerene derivative no.
The influenza A virus (A/PR/8/34 (H1N1)) RNA polymerase PA plasmid, pBMSA-PA, was obtained from the DNA bank at Riken BioResource Center (Tsukuba, Japan; originally deposited by Susumu Nakada). The cDNA fragment corresponding to the PA N-terminal endonuclease domain (residues 1–220; Fig. 2A) was amplified by polymerase chain reaction (PCR) from pBMSA-PA. The amplified product was subcloned into the pET28a (+) plasmid (Novagen, Madison, WI, USA). The induction of recombinant protein expression was achieved by the addition of isopropyl-D-thiogalactopyranoside, and this was followed by purification using Ni^2+-agarose. The recombinant PA endonuclease domain protein was further purified to near homogeneity (Fig. 2B) using a HiTrapQ-FF column (GE Healthcare, Buckinghamshire, UK).
(§1) Influenza A RNA polymerase PA endonuclease activity assays were performed as described by Dias et al. with some modifications [12]–[16]. Briefly, the pH was lowered from 8.0 to 7.3, and 1 µg M13 mp18 single-stranded circular phage DNA was used as the substrate. A total of 0.25 µg recombinant PA endonuclease domain or full-length PA protein were added to 100 µL assay buffer for each reaction (the final concentration of the protein was approximately 0.1 µM). For the fullerene derivative nuclease assay, no PA protein was added at this step. The fullerene derivatives (summarized in Fig. 1) were then added to the reaction, and the products were analyzed by agarose electrophoresis and stained with ethidium bromide.

[4] = test system: M13 mp18 single-stranded circular phage DNA; assay: fullerene derivative nuclease assay in the absence of PA protein; format: biochemical; conditions: 10 µM; absence of PA endonuclease; M13 mp18 substrate; Fig. 4
[5] = test system: influenza A virus A/Aichi/2/68 (H3N2); assay: microbe, parasite or virus in culture; format: cell-based; conditions: for IC50: read-out: IC50 H3N2 Aichi strain
[6] = test system: influenza A virus (A/PR/8/34 (H1N1)); format: cell-based; conditions: 100 µM, A/PR8/34 (H1N1), western blotting
[7] = parameters: method as in PMID 14643333; conditions: cited from earlier work; remark: listed apart in the source
MDCK cells = conditions: 12.5 to 100 µM, 24 h post-incubation
[8] = target: full-length PA protein of influenza A RNA polymerase (Influenza A virus, UniProt P03433); assay: in vitro PA endonuclease assay with recombinant full-length PA protein (M13 mp18 digestion); format: biochemical, influenza A virus (A/PR/8/34 (H1N1)); conditions: 10 µM fullerene derivative; Fig. 3C
Excerpt: We expressed the recombinant full-length PA protein by using a baculovirus to infect Sf9 insect cells (Fig. 3A) and purified it using a Ni-agarose and HiTrap-Q column (Fig. 3B). […] Then, we tested the 12 fullerene derivatives using this same assay. The fullerene derivatives 2–5, 7, 8, 10, and 11 inhibited the endonuclease activity of full-length PA (Fig. 3C), which is consistent with the results for the PA endonuclease domain (Fig. 2C). The M13 mp18 band in the no. 12-treated lane was degraded (Fig. 3C lane 14), the band in the no.
The cDNA fragment corresponding to the full-length protein-coding region of PA was amplified by PCR [38] from pBMSA-PA using the primers PA_start_TOPO ([…]), PA stop ([…]), PA_mid_anti ([…]), and PA_mid_TOPO ([…]). The amplified product was then subcloned into the pENTR/D-TOPO plasmid (Gateway®, Life Technologies™, Carlsbad, CA, USA) using topoisomerase I cloning. The resulting construct was then converted to pDEST10-PA using the clonase (Fig. 3A). The plasmid was transfected into Sf9 insect cells using the helper virus. The resultant baculovirus was again transfected into Sf9 cells. The expressed full-length PA protein was purified using Ni^2+-agarose and a HiTrap Q FF column (GE Healthcare) with the AKTA prime plus system (Fig. 3B).
as §1

[9] = 0.1 µM recombinant PA endonuclease domain
[10] = Influenza A virus, H3N2, MDCK, 24 h

| Compound | inhibition of the digestion of M13 mp18 by the PA endonuclease domain [3, 9] | expression levels of influenza A NP and NS1 proteins compared with DMSO-treated cells [6] | IC50 ([1]; Influenza A virus, MDCK, 24 h) | IC50 [5, 10] | number of NP-positive cells in comparison with the control (DMSO) [1] | inhibition of the endonuclease activity of full-length PA (M13 mp18 band) [8] | also measured |
| --- | --- | --- | --- | --- | --- | --- | --- |
| 1,1,1′,1′-tetramethyl [60]fullerenodipyrrolidinium diiodide [no. 6] | no or weak inhibitory activity | reduced |  |  |  |  | IC50 [1]: 20 µM; antiviral effects against the influenza A virus (overall conclusion) ([1]; summary of immunostaining and western blotting): strongest antiviral activity; antiproliferative activity [2]: antiproliferative and antibacterial activity; mobility shift of M13 mp18 ([3]; lane 13): caused a mobility shift; nuclease activity of the fullerene derivative by itself [4]: significant nuclease activity; IC50 [5]: 31 µM; antibacterial activity [7]: antiproliferative and antibacterial activity |
| COC1Cc2cccc(c2)Oc2c(O)cccc2CCc2ccc(cc2)Oc2cc1cc(O)c2O (centres unmarked) [Marchantin E, reference compound] |  | reduced | 43 µM | 53 µM |  |  | cell viability vs DMSO-treated cells (MTT) (MDCK cells): not significantly different |
| Oc1cc2c(cc1O)CC13c4c5c6c7c8c9c(c%10c%11c1c1c4c4c%12c5c5c6c6c8c8c%13c9c9c%10c%10c%11c%11c1c1c4c4c%12c%12c5c5c6c8c6c8c%13c9c9c%10c%10c%11c1c1c4c4c%12c5c6c5c8c9c%10c1c45)C73C2 (centres unmarked) [no. 1, 1,4-dihydro-6,7-dihydroxy [60]fullerenonaphthlene] | no or weak inhibitory activity | comparable |  |  | comparable | slightly inhibited | IC50 H1N1 PR8 strain [1]: could not be calculated; solubility in water (solubility in water): relatively low; IC50 H3N2 Aichi strain [5]: could not be calculated; number of NP-positive cells in comparison with the DMSO [5]: comparable |
| O=C(O)CN1C(C(=O)O)C23c4c5c6c7c8c9c(c%10c%11c2c2c4c4c%12c5c5c6c6c8c8c%13c9c9c%10c%10c%11c%11c2c2c4c4c%12c%12c5c5c6c8c6c8c%13c9c9c%10c%10c%11c2c2c4c4c%12c5c6c5c8c9c%10c2c45)C73C1C(=O)O (centres unmarked) [no. 4, 1-carboxymethyl [60]fullerenopyrrolidine-2,5-dicarboxylic acid] |  |  | 70 µM | 91 µM |  |  |  |
| CC(C)C1NC(C(=O)O)C23c4c5c6c7c8c9c(c%10c%11c2c2c4c4c%12c5c5c6c6c8c8c%13c9c9c%10c%10c%11c%11c2c2c4c4c%12c%12c5c5c6c8c6c8c%13c9c9c%10c%10c%11c2c2c4c4c%12c5c6c5c8c9c%10c2c45)C713 (centres unmarked) [no. 5, 5-isopropyl [60]fullerenopyrrolidine-2-carboxylic acid] |  | reduced | 37 µM | > 100 µM |  |  |  |
| O=C(O)CN1CCN(CC(=O)O)C23c4c5c6c7c8c9c(c%10c%11c2c2c4c4c%12c5c5c6c6c8c8c%13c9c9c%10c%10c%11c%11c2c2c4c4c%12c%12c5c5c6c8c6c8c%13c9c9c%10c%10c%11c2c2c4c4c%12c5c6c5c8c9c%10c2c45)C713 (centres unmarked) [no. 7, [60]fullerenopiperazine-1,4-diacetic acid] | significantly inhibited | slightly reduced | > 100 µM | > 100 µM |  | inhibited |  |
| CCN1C(C(=O)O)C23c4c5c6c7c8c9c(c%10c%11c2c2c4c4c%12c5c5c6c6c8c8c%13c9c9c%10c%10c%11c%11c2c2c4c4c%12c%12c5c5c6c8c6c8c%13c9c9c%10c%10c%11c2c2c4c4c%12c5c6c5c8c9c%10c2c45)C73C1C(=O)O (centres unmarked) [no. 9, 1-ethyl [60]fullerenopyrrolidine-2,5-dicarboxylic acid] | no or weak inhibitory activity | comparable |  |  | comparable | slightly inhibited | IC50 H1N1 PR8 strain [1]: could not be calculated; IC50 H3N2 Aichi strain [5]: could not be calculated; number of NP-positive cells in comparison with the DMSO [5]: comparable |
| CCOC(=O)CN1C(C(=O)O)C23c4c5c6c7c8c9c(c%10c%11c2c2c4c4c%12c5c5c6c6c8c8c%13c9c9c%10c%10c%11c%11c2c2c4c4c%12c%12c5c5c6c8c6c8c%13c9c9c%10c%10c%11c2c2c4c4c%12c5c6c5c8c9c%10c2c45)C73C1C(=O)OCC (centres unmarked) [no. 10, 1-ethoxycarbonylmethyl [60]fullerenopyrrolidine-2,5-dicarboxylic acid 2-ethyl ester] | significantly inhibited | slightly reduced | > 100 µM | > 100 µM | slightly decreased | inhibited |  |
| O=C(O)C1NC(c2ccccc2)C23c4c5c6c7c8c9c(c%10c%11c2c2c4c4c%12c5c5c6c6c8c8c%13c9c9c%10c%10c%11c%11c2c2c4c4c%12c%12c5c5c6c8c6c8c%13c9c9c%10c%10c%11c2c2c4c4c%12c5c6c5c8c9c%10c2c45)C713 (centres unmarked) [no. 11, 5-phenyl [60]fullerenopyrrolidine-2-carboxylic acid] | significantly inhibited | reduced | 44 µM | > 100 µM | significantly reduced | inhibited |  |
| CN1CC23c4c5c6c7c8c9c(c%10c%11c2c2c4c4c%12c5c5c6c6c8c8c%13c9c9c%10c%10c%11c%11c2c2c4c4c%12c%12c5c5c6c8c6c8c%13c9c9c%10c%10c%11c2c2c4c4c%12c5c6c5c8c9c%10c2c45)C73C1c1cc[n+](C)cc1 (centres unmarked) [no. 12, 4-(1′-methyl [60]fullerenopyrrolidin-2′-yl)-1-methylpyridinium iodide] |  | slightly reduced |  |  | significantly reduced | degraded | IC50 [1]: 78 µM; inhibition of the digestion of M13 mp18 by the PA endonuclease domain ([3]; […]): slightly inhibited; nuclease activity of the fullerene derivative by itself [4]: weaker nuclease activity; IC50 [5]: 63 µM |
| [60]fullerenotricyclopropane-1,1,1′,1′,1′′,1′′-hexacarboxylic acid [no. 8] | significantly inhibited | slightly reduced |  |  |  | inhibited | IC50 [1]: 37 µM; IC50 [5]: > 100 µM |
